Like-named read-outs stand apart in the source and are kept apart here.

The target of assay [1] is T1, Recombinant human NK3 (hNK3) receptor (Homo sapiens, UniProt P29371).
T1 construct: expressed in transfected cells
T1 sequence (P29371 1-465): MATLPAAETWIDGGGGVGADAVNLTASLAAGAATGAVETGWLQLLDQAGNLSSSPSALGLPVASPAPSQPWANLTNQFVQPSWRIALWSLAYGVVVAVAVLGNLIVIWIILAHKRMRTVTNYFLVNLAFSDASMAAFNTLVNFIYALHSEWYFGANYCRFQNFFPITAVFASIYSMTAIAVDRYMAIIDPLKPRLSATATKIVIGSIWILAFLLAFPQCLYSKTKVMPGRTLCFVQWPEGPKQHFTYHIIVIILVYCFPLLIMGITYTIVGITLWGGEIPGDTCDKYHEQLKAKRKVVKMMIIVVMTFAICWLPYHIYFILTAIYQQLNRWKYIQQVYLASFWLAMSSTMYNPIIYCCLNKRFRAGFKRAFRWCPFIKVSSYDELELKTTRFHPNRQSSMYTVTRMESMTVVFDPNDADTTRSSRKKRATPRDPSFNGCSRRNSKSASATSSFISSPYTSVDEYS
Put plainly: NK3 receptor binding, [3H]SR142801 displacement, membrane preparations. The essentials: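 Incubation ran 90 min at room temperature in 50 mM Tris-HCl pH 7.4 with 0.1% BSA, 4 mM MnCl2 and 1 μM phosphoramidon, using about 2.5 μg hNK3 membrane protein per well. Nonspecific binding was defined with 10 μM SB222200, and bound radioactivity was collected on PEI-soaked GF/C filters for scintillation counting.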

The target of assay [2] is human NK1 receptor (Homo sapiens, UniProt P25103). Put plainly: NK1 receptor binding, [3H]substance P displacement, CHO cell membranes.
human NK1 receptor, sequence (P25103 whole entry): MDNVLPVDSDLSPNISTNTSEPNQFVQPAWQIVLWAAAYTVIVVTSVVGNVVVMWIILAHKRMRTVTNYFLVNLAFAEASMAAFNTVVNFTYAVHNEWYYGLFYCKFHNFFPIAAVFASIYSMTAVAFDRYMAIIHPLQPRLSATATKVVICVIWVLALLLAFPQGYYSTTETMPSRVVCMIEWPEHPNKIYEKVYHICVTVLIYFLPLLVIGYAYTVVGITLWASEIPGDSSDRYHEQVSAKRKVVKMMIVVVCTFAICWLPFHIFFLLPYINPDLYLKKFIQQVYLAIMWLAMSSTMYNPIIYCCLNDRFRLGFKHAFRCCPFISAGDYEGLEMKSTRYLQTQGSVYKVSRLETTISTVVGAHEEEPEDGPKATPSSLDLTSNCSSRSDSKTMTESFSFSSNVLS
The mark [3] stands for this setting: second value of the cell pKi NK1/NK3, hNK3 receptor, [3H]SR142801.
Where [4] appears, read: first value of the cell pKi NK1/NK3, human NK1 receptor, [3H]substance P.
Setting [5] is: second value of the cell NK1/NK3, read-out: pKi NK3 (converted).
The mark [6] stands for this setting: first value of the cell NK1/NK3, read-out: pKi NK1 (converted).

`Cc1cc(F)ccc1-c1cc(N2CCC(O)C2)ncc1N(C)C(=O)C(C)(C)c1cc(C(F)(F)F)cc(C(F)(F)F)c1` (racemic) [Example 110, (RS)-2-(3,5-Bis-trifluoromethyl-phenyl)-N-[4-(4-fluoro-2-methyl-phenyl)-6-(3-hydroxy-pyrrolidin-1-yl)-pyridin-3-yl]-N-methyl-isobutyramide]: the Ki in assay [1] (setting [3]) was 13.8 nM; in assay [2] (setting [4]), 2.63 nM.

`CCN(C(C)=O)C1CCN(c2cc(-c3ccccc3Cl)c(N(C)C(=O)C(C)(C)c3cc(C(F)(F)F)cc(C(F)(F)F)c3)cn2)C1` (racemic) [Example 45, (RS)-N-[6-[3-(Acetyl-ethyl-amino)-pyrrolidin-1-yl]-4-(2-chloro-phenyl)-pyridin-3-yl]-2-(3,5-bis-trifluoromethyl-phenyl)-N-methyl-isobutyramide]: the Ki in assay [1] (setting [3]) was 2 nM; in assay [2] (setting [4]) it was 2.29 nM.

Take `CN(C(=O)C(C)(C)c1cc(C(F)(F)F)cc(C(F)(F)F)c1)c1cnc(N[C@H]2CCC[C@@H]2O)cc1-c1ccccc1Cl` [Example 153, (1S,2S)-2-(3,5-Bis-trifluoromethyl-phenyl)-N-[4-(2-chloro-phenyl)-6-(2-hydroxy-cyclopentylamino)-pyridin-3-yl]-N-methyl-isobutyramide]: the Ki is 4.07 nM in assay [1] (setting [3]) and 0.49 nM in assay [2] (setting [4]).

`CN(C(=O)C(C)(C)c1cc(C(F)(F)F)cc(C(F)(F)F)c1)c1cnc(N2CC[C@H](O)[C@@H](CO)C2)cc1-c1ccccc1Cl` (racemic) [Example 193, (3RS,4SR)-2-(3,5-Bis-trifluoromethyl-phenyl)-N-[4′-(2-chloro-phenyl)-4-hydroxy-3-hydroxymethyl-3,4,5,6-tetrahydro-2H-[1,2′]bipyridinyl-5′-yl]-N-methyl-isobutyramide]: the Ki in assay [1] (setting [3]) is 12 nM; in assay [2] (setting [4]), 1.45 nM.

As for `Cc1ccccc1-c1cc(N2CCC(CO)CC2)ncc1N(C)C(=O)C(C)(C)c1cc(C(F)(F)F)cc(C(F)(F)F)c1` [Example 172, 2-(3,5-Bis-trifluoromethyl-phenyl)-N-(4-hydroxymethyl-4′-o-tolyl-3,4,5,6-tetrahydro-2H-[1,2′]bipyridinyl-5′-yl)-N-methyl-isobutyramide], the Ki in assay [1] (setting [3]) is 12.9 nM; in assay [2] (setting [4]), 7.08 nM.

`Cc1cc(C)cc(C(C)(C)C(=O)N(C)c2cnc(N3CCC[C@H]3CO)cc2-c2ccccc2C)c1` [Example 19, (S)-2-(3,5-Dimethyl-phenyl)-N-[6-(2-hydroxymethyl-pyrrolidin-1-yl)-4-o-tolyl-pyridin-3-yl]-N-methyl-isobutyramide]: the Ki in assay [1] (setting [3]) is 5.13 nM; in assay [2] (setting [4]), 2.95 nM.

For the molecule `CN(C(=O)C(C)(C)c1cc(C(F)(F)F)cc(C(F)(F)F)c1)c1cnc(N2C[C@H](O)C[C@H]2CO)cc1-c1ccccc1S(C)(=O)=O` [Example 218, (2S,4R)-2-(3,5-Bis-trifluoromethyl-phenyl)-N-[6-(4-hydroxy-2-hydroxymethyl-pyrrolidin-1-yl)-4-(2-methanesulfonyl-phenyl)-pyridin-3-yl]-N-methyl-isobutyramide], the figures for the Ki in assay [1] (setting [5]) and in assay [2] (setting [6]) were 7.24 nM and 2.63 nM, respectively.

Take `CN(C(=O)C(C)(C)c1cc(C(F)(F)F)cc(C(F)(F)F)c1)c1cnc(N2CC[C@H](O)[C@H]2CO)cc1-c1ccc(F)cc1CO` [Example 274, (2R,3S)-2-(3,5-Bis-trifluoromethyl-phenyl)-N-[4-(4-fluoro-2-hydroxymethyl-phenyl)-6-(3-hydroxy-2-hydroxymethyl-pyrrolidin-1-yl)-pyridin-3-yl]-N-methyl-isobutyramide]: the Ki in assay [1] (setting [5]) is 1.51 nM; in assay [2] (setting [6]) it was 1.29 nM.

Take `Cc1cc(F)ccc1-c1cc(N2C[C@@H](O)C[C@@H]2CO)ncc1N(C)C(=O)C(C)(C)c1cc(C(F)(F)F)cc(C(F)(F)F)c1` [Example 259, (2R,4S)-2-(3,5-Bis-trifluoromethyl-phenyl)-N-[4-(4-fluoro-2-methyl-phenyl)-6-(4-hydroxy-2-hydroxymethyl-pyrrolidin-1-yl)-pyridin-3-yl]-N-methyl-isobutyramide]: the Ki in assay [1] (setting [5]) was 15.1 nM; in assay [2] (setting [6]), 1.66 nM.

For the molecule `Cc1cc(F)ccc1-c1cc(N2CCC[C@H]2CN2CCCC2)ncc1N(C)C(=O)C(C)(C)c1cc(C(F)(F)F)cc(C(F)(F)F)c1` [Example 169, (S)-2-(3,5-Bis-trifluoromethyl-phenyl)-N-[4-(4-fluoro-2-methyl-phenyl)-6-(2-pyrrolidin-1-ylmethyl-pyrrolidin-1-yl)-pyridin-3-yl]-N-methyl-isobutyramide], the Ki in assay [1] (setting [3]) is 21.4 nM; in assay [2] (setting [4]) it was 1.41 nM.

Take `CN(C(=O)C(C)(C)c1cc(C(F)(F)F)cc(C(F)(F)F)c1)c1cnc(N[C@@H]2CCCC[C@H]2O)cc1-c1ccccc1Cl` (racemic) [Example 151, (1RS,2RS)-2-(3,5-Bis-trifluoromethyl-phenyl)-N-[4-(2-chloro-phenyl)-6-(2-hydroxy-cyclohexylamino)-pyridin-3-yl]-N-methyl-isobutyramide]: the figures for the Ki in assay [1] (setting [3]) and in assay [2] (setting [4]) were 27.5 nM and 1.15 nM, respectively.

With `Cc1cc(F)ccc1-c1cc(N2CCC[C@H]2CO)ncc1N(C)C(=O)C(C)(C)c1cc(Cl)cc(Cl)c1` [Example 22, (S)-2-(3,5-Dichloro-phenyl)-N-[4-(4-fluoro-2-methyl-phenyl)-6-(2-hydroxymethyl-pyrrolidin-1-yl)-pyridin-3-yl]-N-methyl-isobutyramide], the Ki in assay [1] (setting [3]) was 1.17 nM; in assay [2] (setting [4]), 5.13 nM.

For `Cc1ccccc1-c1cc(N2CC[C@H](O)[C@H](O)C2)ncc1N(C)C(=O)C(C)(C)c1cc(C(F)(F)F)cc(C(F)(F)F)c1` (racemic) [Example 185, (3RS,4SR)-2-(3,5-Bis-trifluoromethyl-phenyl)-N-(3,4-dihydroxy-4′-o-tolyl-3,4,5,6-tetrahydro-2H-[1,2′]bipyridinyl-5′-yl)-N-methyl-isobutyramide], the Ki is 32.4 nM in assay [1] (setting [3]) and 1.55 nM in assay [2] (setting [4]).

As for `C[C@@H](CO)Nc1cc(-c2ccccc2Cl)c(N(C)C(=O)C(C)(C)c2cc(C(F)(F)F)cc(C(F)(F)F)c2)cn1` [Example 79, (S)-2-(3,5-Bis-trifluoromethyl-phenyl)-N-[4-(2-chloro-phenyl)-6-(2-hydroxy-1-methyl-ethylamino)-pyridin-3-yl]-N-methyl-isobutyramide], the results for the Ki in assay [1] (setting [3]) and in assay [2] (setting [4]) were 10.5 nM and 1.35 nM, respectively.

Take `Cc1cc(F)ccc1-c1cc(N2CCC[C@H]2COC(=O)N(C)C)ncc1N(C)C(=O)C(C)(C)c1cc(C(F)(F)F)cc(C(F)(F)F)c1` [Example 303, (S)-Dimethyl-carbamic Acid 1-[5-{[2-(3,5-bis-trifluoromethyl-phenyl)-2-methyl-propionyl]-methyl-amino}-4-(4-fluoro-2-methyl-phenyl)-pyridin-2-yl]-pyrrolidin-2-ylmethyl Ester]: the Ki was 15.1 nM in assay [1] (setting [5]) and 1.32 nM in assay [2] (setting [6]).

Consider `Cc1cc(F)ccc1-c1cc(N2C[C@H](O)C[C@H]2CO)ncc1N(C)C(=O)C(C)(C)c1cc(Cl)cc(OC(F)F)c1` [Example 39, (2S,4R)-2-(3-Chloro-5-difluoromethoxy-phenyl)-N-[4-(4-fluoro-2-methyl-phenyl)-6-(4-hydroxy-2-hydroxymethyl-pyrrolidin-1-yl)-pyridin-3-yl]-N-methyl-isobutyramide], for which the Ki in assay [1] (setting [3]) was 1.29 nM; in assay [2] (setting [4]), 1.05 nM.

For `Cc1ccncc1-c1cc(N(CCO)CCO)ncc1N(C)C(=O)C(C)(C)c1cc(C(F)(F)F)cc(C(F)(F)F)c1` [Example 293, N-{6′-[Bis-(2-hydroxy-ethyl)-amino]-4-methyl-[3,4′]bipyridinyl-3′-yl}-2-(3,5-bis-trifluoromethyl-phenyl)-N-methyl-isobutyramide], the Ki in assay [1] (setting [5]) is 1.62 nM; in assay [2] (setting [6]), 3.8 nM.

Regarding `CN(C(=O)C(C)(C)c1cc(C(F)(F)F)cc(C(F)(F)F)c1)c1cnc(N2C[C@@H](O)C[C@H]2CO)cc1-c1ccc(Cl)c(Cl)c1` [Example 252, (2S,4S)-2-(3,5-Bis-trifluoromethyl-phenyl)-N-[4-(3,4-dichloro-phenyl)-6-(4-hydroxy-2-hydroxymethyl-pyrrolidin-1-yl)-pyridin-3-yl]-N-methyl-isobutyramide], the Ki in assay [1] (setting [5]) was 6.17 nM; in assay [2] (setting [6]), 1.66 nM.

Regarding `Cc1ccccc1-c1cc(N2C[C@@H](O)C[C@H]2CO)ncc1N(C)C(=O)C(C)(C)c1cc(C(F)(F)F)cc(C(F)(F)F)c1` [Example 241, (2S,4S)-2-(3,5-Bis-trifluoromethyl-phenyl)-N-[6-(4-hydroxy-2-hydroxymethyl-pyrrolidin-1-yl)-4-o-tolyl-pyridin-3-yl]-N-methyl-isobutyramide], the Ki was 1.62 nM in assay [1] (setting [5]) and 1.45 nM in assay [2] (setting [6]).

As to `CN(C(=O)C(C)(C)c1cc(Cl)cc(Cl)c1)c1cnc(NCCO)cc1-c1ccccc1Cl` [Example 1, N-[4-(2-Chloro-phenyl)-6-(2-hydroxy-ethylamino)-pyridin-3-yl]-2-(3,5-dichloro-phenyl)-N-methyl-isobutyramide], the figures for the Ki in assay [1] (setting [3]) and in assay [2] (setting [4]) were 8.91 nM and 2.75 nM, respectively.

Source of the values: patent publication US8404708B2, “Dual NK1/NK3 receptor antagonists” (Hoffmann-La Roche Inc., priority 2004, dated 2013).
